Data as given in ChEMBL document CHEMBL4339214, “Design, synthesis and biological activity of deuterium-based FFA1 agonists with improved pharmacokinetic profiles” (Bioorg Med Chem Lett, 2019).
The source made the active and inactive calls. The rule behind the calls is not given here.

Experiments:
[1] = AUC (0 to 24 hrs) in 12 hrs fasted Sprague-Dawley rat at 3 mg/kg, po administered as single dose measured up to 24 hrs by LC-PDA-MS/MS analysis; assay type: ADME, organism-based; set-up: time < 24 hr, dose 3 mg/kg, route oral; conditions: in vivo
[2] = Apparent volume of distribution during terminal phase in 12 hrs fasted Sprague-Dawley rat at 3 mg/kg, po administered as single dose measured up to 24 hrs by LC-PDA-MS/MS analysis; assay type: ADME, organism-based; conditions: in vivo
[3] = system: Mus musculus; test: Antidiabetic activity in normal ICR mouse assessed as reduction in blood glucose AUC (0 to 120 mins) at 20 mg/kg, po administered 30 mins before oral glucose load by OGTT assay; assay type: functional, organism-based
[4] = target: Free fatty acid receptor 1 (Homo sapiens, UniProt O14842); test: Agonist activity at human FFA1 receptor expressed in CHO cells assessed as increase in intracellular calcium levels measured for 1 hr by Fluo 4-AM dye based FLIPR assay; assay type: functional, cell-based
[5] = system: Mus musculus; test: Antidiabetic activity in normal ICR mouse assessed as reduction in blood glucose level at 20 mg/kg, po administered 30 mins before oral glucose load by OGTT assay; assay type: functional, organism-based
[6] = Cmax in 12 hrs fasted Sprague-Dawley rat at 3 mg/kg, po administered as single dose measured up to 24 hrs by LC-PDA-MS/MS analysis; assay type: ADME, organism-based; set-up: dose 3 mg/kg, route oral; conditions: in vivo
[7] = Half life in 12 hrs fasted Sprague-Dawley rat at 3 mg/kg, po administered as single dose measured up to 24 hrs by LC-PDA-MS/MS analysis; assay type: ADME, organism-based; conditions: in vivo
[8] = system: Mus musculus; test: Induction of hypoglycemia in fasting normal ICR mouse assessed as reduction in blood glucose level at 15 mg/kg, po measured up to 3 hrs post dose; assay type: organism-based; conditions: in vivo
[9] = system: Mus musculus; test: Induction of hypoglycemia in fasting normal ICR mouse assessed as reduction in blood glucose level at 60 mg/kg, po measured up to 3 hrs post dose; assay type: organism-based; conditions: in vivo

Sequence of Free fatty acid receptor 1 (O14842 whole entry): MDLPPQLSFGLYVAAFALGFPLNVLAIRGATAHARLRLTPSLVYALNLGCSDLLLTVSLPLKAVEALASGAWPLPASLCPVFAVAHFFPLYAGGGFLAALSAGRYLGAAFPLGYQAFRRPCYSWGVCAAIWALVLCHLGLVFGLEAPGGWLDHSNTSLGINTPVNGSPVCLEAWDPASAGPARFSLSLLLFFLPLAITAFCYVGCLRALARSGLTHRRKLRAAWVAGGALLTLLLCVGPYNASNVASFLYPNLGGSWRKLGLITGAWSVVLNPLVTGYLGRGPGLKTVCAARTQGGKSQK

AUC [1] [ng·h/mL] | Vz/F [2] [L/kg] | EC50 [4] [nM] | Cmax [6] [ng/mL] | t1/2 [7] [h] | SMILES | Activity [3] | Activity ([3]; tested as the 2H-labelled form) | Activity [5] | Activity ([5]; tested as the 2H-labelled form) | Activity [8] | Activity [9]
14063.25 | 0.074 | 32.5 | 1730 | 1.75 | Cc1noc(C)c1-c1cccc(COc2ccc(CCC(=O)O)c(F)c2)c1 | inactive | Active | inactive | Active | – | –
– | – | – | – | – | COc1ccc(Cl)cc1C(=O)NCCc1ccc(S(=O)(=O)NC(=O)NC2CCCCC2)cc1 [GLYBURIDE] | – | – | – | – | Toxic | –
46492.43 | 0.049 | 37.4 | 2910 | 3.14 | [2H]C([2H])(Cc1ccc(OCc2cccc(-c3c(C)noc3C)c2)cc1F)C(=O)O | – | – | – | – | – | Non-Toxic
31694.16 | 0.057 | 28.9 | 2360 | 2.58 | [2H]C([2H])(Cc1ccc(OCc2cccc(-c3c(C)noc3C)c2)cc1)C(=O)O | – | – | – | – | – | –
